From BindingDB's records for patent US11485738 (MIRATI THERAPEUTICS, INC., 2022)

Biological target: Histone-binding protein RBBP4/Polycomb protein EED/Polycomb protein SUZ12/Zinc finger protein AEBP2 (Human, UniProt O75530+Q09028+Q15022+Q6ZN18)
Test: Enzymatic Activity Assay

Histone-binding protein RBBP4/Polycomb protein EED/Polycomb protein SUZ12/Zinc finger protein AEBP2, sequence (O75530 whole entry): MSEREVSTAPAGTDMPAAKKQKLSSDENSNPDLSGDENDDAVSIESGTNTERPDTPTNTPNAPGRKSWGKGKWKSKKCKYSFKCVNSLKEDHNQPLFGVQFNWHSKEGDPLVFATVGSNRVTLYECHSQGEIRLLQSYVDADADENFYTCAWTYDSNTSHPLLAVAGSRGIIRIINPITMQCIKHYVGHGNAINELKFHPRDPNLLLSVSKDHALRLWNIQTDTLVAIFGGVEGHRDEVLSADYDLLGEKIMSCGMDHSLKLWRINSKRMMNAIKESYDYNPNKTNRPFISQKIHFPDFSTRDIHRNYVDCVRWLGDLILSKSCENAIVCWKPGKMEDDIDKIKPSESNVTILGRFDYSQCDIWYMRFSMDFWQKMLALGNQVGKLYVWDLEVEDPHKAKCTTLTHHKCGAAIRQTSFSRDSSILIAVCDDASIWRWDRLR
Histone-binding protein RBBP4/Polycomb protein EED/Polycomb protein SUZ12/Zinc finger protein AEBP2, sequence (Q15022 whole entry): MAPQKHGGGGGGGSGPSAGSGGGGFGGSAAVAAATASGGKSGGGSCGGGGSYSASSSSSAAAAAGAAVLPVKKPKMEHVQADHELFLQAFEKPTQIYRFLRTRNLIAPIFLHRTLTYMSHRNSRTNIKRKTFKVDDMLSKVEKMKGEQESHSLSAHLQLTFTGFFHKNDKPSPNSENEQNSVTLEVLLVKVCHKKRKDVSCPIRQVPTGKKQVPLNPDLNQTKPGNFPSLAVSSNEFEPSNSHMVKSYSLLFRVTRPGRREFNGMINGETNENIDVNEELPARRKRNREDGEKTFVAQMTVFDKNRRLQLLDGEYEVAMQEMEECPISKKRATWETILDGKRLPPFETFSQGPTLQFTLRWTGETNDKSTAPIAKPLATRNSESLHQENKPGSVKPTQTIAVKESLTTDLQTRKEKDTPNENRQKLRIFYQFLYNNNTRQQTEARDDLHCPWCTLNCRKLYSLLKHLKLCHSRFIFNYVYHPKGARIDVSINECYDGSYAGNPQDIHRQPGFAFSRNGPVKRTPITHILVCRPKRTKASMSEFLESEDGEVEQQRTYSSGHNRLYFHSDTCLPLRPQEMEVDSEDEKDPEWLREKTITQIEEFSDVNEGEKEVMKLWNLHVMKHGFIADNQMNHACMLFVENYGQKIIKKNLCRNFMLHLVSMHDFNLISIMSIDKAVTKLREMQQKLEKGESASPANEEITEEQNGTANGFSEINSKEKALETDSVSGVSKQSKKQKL
Histone-binding protein RBBP4/Polycomb protein EED/Polycomb protein SUZ12/Zinc finger protein AEBP2, sequence (Q6ZN18 whole entry): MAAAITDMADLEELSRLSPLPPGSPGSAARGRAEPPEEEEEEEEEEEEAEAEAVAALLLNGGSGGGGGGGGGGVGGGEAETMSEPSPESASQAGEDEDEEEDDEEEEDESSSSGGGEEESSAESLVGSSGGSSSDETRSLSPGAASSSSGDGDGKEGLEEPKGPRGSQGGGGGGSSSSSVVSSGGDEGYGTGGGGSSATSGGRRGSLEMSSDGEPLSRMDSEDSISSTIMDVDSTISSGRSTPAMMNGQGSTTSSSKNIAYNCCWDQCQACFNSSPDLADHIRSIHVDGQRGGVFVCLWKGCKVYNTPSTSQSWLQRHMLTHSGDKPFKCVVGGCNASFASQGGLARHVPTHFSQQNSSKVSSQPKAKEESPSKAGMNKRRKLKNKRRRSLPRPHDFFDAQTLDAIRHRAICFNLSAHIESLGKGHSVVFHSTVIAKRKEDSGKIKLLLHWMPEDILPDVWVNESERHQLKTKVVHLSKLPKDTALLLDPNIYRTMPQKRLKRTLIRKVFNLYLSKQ
Histone-binding protein RBBP4/Polycomb protein EED/Polycomb protein SUZ12/Zinc finger protein AEBP2, sequence (Q09028 whole entry): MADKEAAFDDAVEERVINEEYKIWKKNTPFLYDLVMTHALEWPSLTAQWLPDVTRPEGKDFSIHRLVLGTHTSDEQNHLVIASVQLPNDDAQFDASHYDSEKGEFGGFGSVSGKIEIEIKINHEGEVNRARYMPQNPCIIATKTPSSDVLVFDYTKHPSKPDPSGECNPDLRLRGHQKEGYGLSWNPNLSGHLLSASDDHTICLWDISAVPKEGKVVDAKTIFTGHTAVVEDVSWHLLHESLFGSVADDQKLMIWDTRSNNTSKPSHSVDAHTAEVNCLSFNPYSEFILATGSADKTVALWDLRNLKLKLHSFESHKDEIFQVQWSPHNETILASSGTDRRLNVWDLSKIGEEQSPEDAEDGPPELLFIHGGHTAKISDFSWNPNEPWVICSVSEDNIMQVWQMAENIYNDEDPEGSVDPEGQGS

IC50 | SMILES
< 100 nM | Cc1nc(N2CCOCC2)ccc1-c1cnc(NCc2c(F)ccc3c2CCO3)n2cc(C#N)nc12 [US11485738, Example 56]
< 100 nM | Cc1cc(S(C)(=O)=O)ccc1-c1cnc(NCc2c(F)ccc3c2CCO3)n2cc(C#N)nc12 [US11485738, Example 87]
